Three compounds from ChEMBL document CHEMBL5375952, “Discovery of Novel 8-Hydroxyquinoline Derivatives with Potent In Vitro and In Vivo Antifungal Activity” (J Med Chem, 2023) can be followed below.

Calls of active or inactive are those of the source. No cut-off for these calls is given here.

Series [1] deals with Candida albicans. Briefly: Synergistic antifungal activity against FLC-resistant Candida albicans 304103 assessed as MIC of FLC incubated for 48 hrs by broth microdilution method. It is filed as functional. (In general: Broth dilution looks for growth in wells or tubes with falling amounts of substance.)
The subject of series [2] is Candida albicans. Briefly: Synergistic antifungal activity against FLC-resistant Candida albicans 8 assessed as MIC of FLC incubated for 48 hrs by broth microdilution method. The format is functional.
Series [3] has as its system Candida albicans. As to the kind of experiment: Synergistic antifungal activity against FLC-resistant Candida albicans 14 assessed as MIC of FLC incubated for 48 hrs by broth microdilution method. It is filed as functional.
The subject of series [4] is Candida albicans. Briefly: Synergistic antifungal activity against FLC-resistant Candida albicans 379 assessed as MIC of FLC incubated for 48 hrs by broth microdilution method. It is filed as functional.
Series [5] has as its system Candida albicans. Briefly: Synergistic antifungal activity against FLC-resistant Candida albicans 538 assessed as MIC of FLC incubated for 48 hrs by broth microdilution method. It is filed as functional.
The test system of series [6] is Candida albicans. Briefly: Synergistic antifungal activity against FLC-resistant Candida albicans 646 assessed as MIC of FLC incubated for 48 hrs by broth microdilution method. The format is functional.
In series [7] the test system is Candida albicans. Briefly: Synergistic antifungal activity against FLC-resistant Candida albicans 953 assessed as MIC of FLC incubated for 48 hrs by broth microdilution method. The format is functional.
The subject of series [8] is Candida albicans. Briefly: Synergistic antifungal activity against FLC-resistant Candida albicans 512681 assessed as MIC of FLC incubated for 48 hrs by broth microdilution method. It is filed as functional.
The subject of series [9] is Candida albicans. Briefly: Synergistic antifungal activity against FLC-resistant Candida albicans 710506 assessed as MIC of FLC incubated for 48 hrs by broth microdilution method. The format is functional.
Series [10] has as its system Candida albicans. As to the kind of experiment: Synergistic antifungal activity against FLC-resistant Candida albicans 710513 assessed as MIC of FLC incubated for 48 hrs by broth microdilution method. The format is functional.
Series [11] concerns Candida albicans. As to the kind of experiment: Synergistic antifungal activity against FLC-resistant Candida albicans 710554 assessed as MIC of FLC incubated for 48 hrs by broth microdilution method. The format is functional.
Series [12] deals with Candida albicans. As to the kind of experiment: Synergistic antifungal activity against FLC-resistant Candida albicans 11 assessed as fungal growth inhibition incubated for 48 hrs in presence of FLC by broth microdilution method. It is filed as functional.
Series [13] deals with Candida albicans. As to the kind of experiment: Synergistic antifungal activity against FLC-resistant Candida albicans 12 assessed as fungal growth inhibition incubated for 48 hrs in presence of FLC by broth microdilution method. The format is functional.
For series [14], the system named is Candida albicans. Briefly: Synergistic antifungal activity against FLC-resistant Candida albicans 538 assessed as fungal growth inhibition incubated for 48 hrs in presence of FLC by broth microdilution method. The format is functional.
Series [15] deals with Candida albicans. As to the kind of experiment: Synergistic antifungal activity against FLC-resistant Candida albicans 540 assessed as fungal growth inhibition incubated for 48 hrs in presence of FLC by broth microdilution method. It is filed as functional.
In series [16] the test system is Candida albicans. As to the kind of experiment: Synergistic antifungal activity against FLC-resistant Candida albicans 819 assessed as fungal growth inhibition incubated for 48 hrs in presence of FLC by broth microdilution method. It is filed as functional.
The test system of series [17] is Candida albicans. Briefly: Synergistic antifungal activity against FLC-resistant Candida albicans 953 assessed as fungal growth inhibition incubated for 48 hrs in presence of FLC by broth microdilution method. It is filed as functional.
The subject of series [18] is Candida albicans. Briefly: Synergistic antifungal activity against FLC-resistant Candida albicans 710554 assessed as fungal growth inhibition incubated for 48 hrs in presence of FLC by broth microdilution method. It is filed as functional.
Series [19] relates to Candida albicans. As to the kind of experiment: Synergistic antifungal activity against FLC-resistant Candida albicans 304103 assessed as fractional inhibitory concentration index incubated for 48 hrs in presence of FLC by broth microdilution method. It is filed as functional.
Series [20] concerns Candida albicans. Briefly: Synergistic antifungal activity against FLC-resistant Candida albicans 10 assessed as fractional inhibitory concentration index incubated for 48 hrs in presence of FLC by broth microdilution method. It is filed as functional.
The subject of series [21] is Candida albicans. Briefly: Synergistic antifungal activity against FLC-resistant Candida albicans 11 assessed as fractional inhibitory concentration index incubated for 48 hrs in presence of FLC by broth microdilution method. The format is functional.
In series [22] the test system is Candida albicans. As to the kind of experiment: Synergistic antifungal activity against FLC-resistant Candida albicans 12 assessed as fractional inhibitory concentration index incubated for 48 hrs in presence of FLC by broth microdilution method. The format is functional.
Series [23] has as its system Candida albicans. Briefly: Synergistic antifungal activity against FLC-resistant Candida albicans 241 assessed as fractional inhibitory concentration index incubated for 48 hrs in presence of FLC by broth microdilution method. The format is functional.
For series [24], the system named is Candida albicans. Briefly: Synergistic antifungal activity against FLC-resistant Candida albicans 305 assessed as fractional inhibitory concentration index incubated for 48 hrs in presence of FLC by broth microdilution method. The format is functional.
The subject of series [25] is Candida albicans. Briefly: Synergistic antifungal activity against FLC-resistant Candida albicans 385 assessed as fractional inhibitory concentration index incubated for 48 hrs in presence of FLC by broth microdilution method. It is filed as functional.
Series [26] relates to Candida albicans. As to the kind of experiment: Synergistic antifungal activity against FLC-resistant Candida albicans 540 assessed as fractional inhibitory concentration index incubated for 48 hrs in presence of FLC by broth microdilution method. It is filed as functional.
Series [27] deals with Candida albicans. As to the kind of experiment: Synergistic antifungal activity against FLC-resistant Candida albicans 605141 assessed as fractional inhibitory concentration index incubated for 48 hrs in presence of FLC by broth microdilution method. It is filed as functional.
The subject of series [28] is Candida albicans. Briefly: Antifungal activity against Candida albicans 0304103 assessed as fungal growth inhibition at 4 to 8 ug/ml incubated for 48 hrs by time-kill assay. It is filed as functional, organism-based. To be noted: dose 4-8 µg/ml.
The subject of series [29] is Candida albicans. As to the kind of experiment: Inhibition of biofilm formation of Candida albicans SC5314 at 8 ug/ml incubated for 24 hrs by XTT assay relative to control. It is filed as functional. For orientation: Tetrazolium assays rely on reduction of a dye to a coloured formazan, in cell work by metabolically active cells.
Series [30] deals with Candida albicans. Briefly: Synergistic inhibition of biofilm formation of Candida albicans SC5314 incubated for 24 hrs in presence of FLC by XTT assay. The conditions noted are these: dose <= 16.0 µg/ml. It is filed as functional, organism-based.
Series [31] in a line: Toxicity in C57BL/6 mouse infected with Candida albicans SC5314 assessed as animal survival at 2 mg/kg, ip measured after 20 days relative to control. The format is organism-based. To be noted: in vivo, 480 h, time 20 day.
Series [32] is described as follows: C0 in Sprague-Dawley rat at 2 mg/kg, iv by LC-MS/MS analysis. The format is ADME, organism-based. The conditions noted are these: in vivo.
Series [33] can be described thus: Half life in Sprague-Dawley rat at 2 mg/kg, iv by LC-MS/MS analysis. It is filed as ADME, organism-based. The conditions noted are these: in vivo.
Series [34] is described as follows: AUC (0 to infinity) in Sprague-Dawley rat at 2 mg/kg, iv by LC-MS/MS analysis. It is filed as ADME, organism-based. On the set-up: dose 2 mg/kg, route iv. The conditions noted are these: in vivo.
Series [35] is described as follows: Clearance in Sprague-Dawley rat at 2 mg/kg, iv by LC-MS/MS analysis. It is filed as ADME, organism-based. The conditions noted are these: in vivo.
The nature of series [36]: MRT (0 to t) in Sprague-Dawley rat at 2 mg/kg, iv by LC-MS/MS analysis. It is filed as ADME, organism-based. The conditions noted are these: in vivo.
A short description of series [37]: Volume of distribution at steady state in Sprague-Dawley rat at 2 mg/kg, iv by LC-MS/MS analysis. The format is ADME, organism-based. The conditions noted are these: in vivo, read-out: Vdss.
Series [38] can be described thus: MRT (0 to t) in Sprague-Dawley rat at 5 mg/kg, po by LC-MS/MS analysis. It is filed as ADME, organism-based. The conditions noted are these: in vivo.
Series [39] can be described thus: Oral bioavailability in Sprague-Dawley rat at 5 mg/kg by LC-MS/MS analysis. It is filed as ADME, organism-based. The conditions noted are these: in vivo.
The subject of series [40] is Candida albicans. Briefly: Antifungal activity against Candida albicans SC5314 assessed as fungal growth inhibition incubated for 48 hrs in presence of Cu2+ by broth microdilution method (reference value: […] ug/ml). The format is functional.
A short description of series [41]: Toxicity in C57BL/6 mouse infected with Candida albicans SC5314 assessed as animal death at 2 mg/kg, ip measured after 7 days. It is filed as organism-based. To be noted: in vivo, 168 h, time 7 day.
The nature of series [42]: Toxicity in C57BL/6 mouse infected with Candida albicans SC5314 assessed as animal death at 0.25 mg/kg, ip measured after 7 days. The format is organism-based. The conditions noted are these: in vivo, 168 h, time 7 day.

Turning to `CCN(CC)c1ccc(C(NC(=O)C(C)C)c2ccc3cccnc3c2O)cc1` (configuration not stated), the MIC in the series on Candida albicans [1] was determined as 0.5 µg/mL; with Candida albicans [2], 0.031 µg/mL; in the series with Candida albicans [3], 0.25 µg/mL; with Candida albicans [4] it was 1 µg/mL; with Candida albicans [5], 2 µg/mL; in the series on Candida albicans [6], 1 µg/mL. Besides, the minimum inhibitory concentration (MIC) in the series with Candida albicans [7] came to 0.125 µg/mL; in the series with Candida albicans [8], 0.25 µg/mL; in the series with Candida albicans [9] it was 0.5 µg/mL; with Candida albicans [10], 1 µg/mL; with Candida albicans [11], 0.5 µg/mL; with Candida albicans [12] it was 0.008 µg/mL. Further, the MIC with Candida albicans [13] stood at 0.008 µg/mL; in the series on Candida albicans [14] it was 0.008 µg/mL; with Candida albicans [15], 0.016 µg/mL; in the series on Candida albicans [16], 0.016 µg/mL; in the series on Candida albicans [17], 0.016 µg/mL; with Candida albicans [18], 0.031 µg/mL. Moreover, the “fractional inhibitory concentration index (FICI)” value with Candida albicans [19] amounted to 0.047; with Candida albicans [20] it was 0.07; in the series with Candida albicans [21] it was 0.039; in the series with Candida albicans [22], 0.062; in the series with Candida albicans [23] it was 0.039; in the series on Candida albicans [24], 0.039. Further, the “fractional inhibitory concentration index (FICI)” value was determined as 0.078 in the series on Candida albicans [25], 0.064 with Candida albicans [26] and 0.063 with Candida albicans [27]. Also, in the series on Candida albicans [28], the “growth inhibition (GI)” value is “inactive”. This compound displayed an inhibition at 8 µg/mL with Candida albicans [29] of 16.5%. Further, in the series with Candida albicans [30], the inhibition entry is “Dose-Dependent Effect”. Also, the Survival in series [31] is listed as 20%. The compound further registered a C0 in [32] of 2460 ng/mL. In [33], this compound had a half-life of 5.28 h. In [34], this compound yielded an AUC(0-inf) of 1110 ng·h/mL. In addition, the clearance in series [35] came out at 30.4 mL/min/kg. Also, the MRT last in series [36] came to 2.05 h; in series [38], 0.813 h. In addition, the Vd in series [37] came to 4.75 L/kg. Also, the bioavailability in series [39] worked out at 5.7%.
On to `Oc1c(I)cc(Cl)c2cccnc12` [CLIOQUINOL], for which the MIC in the series with Candida albicans [40] came to 128 µg/mL. Also, the Activity entry in series [41] is “Non-Toxic”.
Turning to `OC(Cn1cncn1)(Cn1cncn1)c1ccc(F)cc1F` [FLUCONAZOLE], in [42], the Activity entry is “Toxic”.

The term MIC denotes the lowest concentration found to suppress growth. For orientation: inhibition means the share of the control response that was lost under treatment. Usually half-life stands for the time in which the quantity being followed falls by half. A lower half-life goes with rapid decline. One may read the AUC(0-inf) as total exposure, with the tail of the curve extrapolated. Lower therefore signals less exposure. As a reminder, the clearance is the volume of plasma or blood freed of the substance per unit of time. What is called MRT last is the average time that molecules of a dose stay in the body. As a reminder, the bioavailability is the share of a dose that reaches the circulation, judged against a reference dose that is usually intravenous. A high value points to good availability.
